Laboratory results published in patent publication US8901118B2, “Compounds and methods for kinase modulation, and indications therefor” (Plexxikon Inc., priority 2010, dated 2014).

Tests used:
TrkC kinase = TrkC kinase (Homo sapiens, UniProt Q16288); test: TrkC kinase biochemical activity assay (similar to TrkA assay); conditions: read-out: Biochemical Inhibition IC50 TrkC
Experimental: In one assay the biochemical activity IC50 values are determined with respect to inhibition of TrkA kinase activity, where inhibition of phosphorylation of a peptide substrate is measured as a function of compound concentration. Compounds to be tested, dissolved in DMSO (1 μL), are added to a white 384-well plate (Costar #3705). Working stocks of TrkA kinase (UBI), biotin-(E4Y)10 substrate (Upstate Biotech, Cat#12-440), and ATP (Sigma, Cat#A-3377) are prepared in 25 mM Hepes pH 7.5, 10 mM MnCl2, 1 mM DTT, 0.01% BSA, and 0.01% Tween-20. All components are added to the 384-well plate for a final concentration of 1 ng/well TrkA, 30 nM biotin-(E4Y)10 and 100 μM ATP in a volume of 20 μL. Each sample is at 5% DMSO. The plate is shaken for 1 minute at 1200 rpm, spun for 1 minute at 1000 rpm, then incubated for 40 minutes at room temperature. Just before use, working stocks of donor and acceptor beads from the AlphaScreen PY20 Detection Kit (PerkinElmer, Cat#676601M) are prepared in 25 mM Hepes pH 7.5, 100 mM EDTA. 0.01% BSA. Donor Beads solution (Streptavidin beads) is added (5 μL) to each well to final bead concentration of 10 μg/mL. The plate is incubated at room temperature for 20 minutes. Acceptor Beads solution (PY20 coated beads) are then added to each well (5 μL) to a final concentration of bead at 10 μg/mL. The plates are incubated at room temperature for 60 minutes. Fluorescence signal is recorded on the Envision reader. Phosphorylated substrate results in binding of the PY20 antibody and association of the donor and acceptor beads such that signal correlates with kinase activity. The signal vs. compound concentration is used to determine the IC50. Similar assays are used for TrkB and Trk C kinase.

BCR-FMS BaF3 cells = test: Splenomegaly mouse model, BCR-FMS BaF3 cells; format: in vivo
Experimental: (§1) BaF3 cells are engineered with any of BCR-FMS, BCR-TRK1 or BCR-TRK2 to assess in vivo inhibitory effects of Fms, TrkA or TrkB inhibition, respectively. BaF3 cells are maintained in growth media (RPMI containing 10% FBS, 1% PenStrep, 1% NEAA, and 1% L-Glutamine, supplemented with 5% murine IL-3 and 1 mg/mL G418). Four days prior to start, 2×10^6 cells are inoculated into a T150 vented flask using the growth media and incubated at 37° C. in 5% CO2 for three days. One day prior to start, cells are collected by centrifugation and are suspended in growth media without IL-3. On the day of cell implant, the cells are collected by centrifugation, rinsed 3×20 mL with RPMI, then are suspended in 5.4 mL of media and counted, then adjusted with additional RPMI as needed to give 5×10^7 cells/mL. On day 1, female nu/nu mice at 5-6 weeks of age are injected intravenously with BaF3 cells injected injecting 0.1 mL (5×10^6) cells in the tail vein (mice without cell injected are included as control group). Compound stocks in dimethylsulfoxide are stored at room temperature protected from light. Stocks are diluted prior to dosing, diluting 22 μL of compound stock into 858 μL of diluent (or 50 μL into 1950 μL) to provide vehicle of 1.0% Polysorbate 80, 0.5% hydroxypropyl methyl cellulose, with final dimethylsulfoxide at 2.5% in all dosing suspensions and vehicle control. Dosing suspension is prepared prior to use, mixing by inversion and sonication in a water bath to make a uniform suspension. On days 10-18, mice are treated with vehicle only or the desired level of compound in vehicle, ˜0.2 mL per 25 gm mouse, once a day by oral gavage, or in some instances, twice per day. On day 18, mice are administered a final dose and two hours later a plasma sample is taken. At four hours following the final dose, mice are sacrificed, an additional plasma sample is collected and mouse spleens are removed and weighed. The average spleen weight of vehicle control group mice is compared to the average spleen weight of the test compound mice. Percent spleen growth inhibition is calculated as 100×[(spleen weight vehicle control-spleen weight test compound)/spleen weight vehicle control]. In some instances, the compounds were not tested in all of the assays as indicated by NA in the table below.

BCR-TRK2 BaF3 cells = test: Splenomegaly mouse model, BCR-TRK2 BaF3 cells; format: in vivo
Experimental: as §1

BCR-TRK1 BaF3 cells = test: Splenomegaly mouse model, BCR-TRK1 BaF3 cells; format: in vivo
Experimental: as §1, with “The average spleen weight of vehicle control group mice is compared to the average spleen weight of the test compound mice.” left out, “In some instances, the compounds were not tested in all of the assays as indicated by NA in the table below.” left out

[1] = dosed once per day at 10 mg per kg

Chain of TrkC kinase (Q16288 32-839): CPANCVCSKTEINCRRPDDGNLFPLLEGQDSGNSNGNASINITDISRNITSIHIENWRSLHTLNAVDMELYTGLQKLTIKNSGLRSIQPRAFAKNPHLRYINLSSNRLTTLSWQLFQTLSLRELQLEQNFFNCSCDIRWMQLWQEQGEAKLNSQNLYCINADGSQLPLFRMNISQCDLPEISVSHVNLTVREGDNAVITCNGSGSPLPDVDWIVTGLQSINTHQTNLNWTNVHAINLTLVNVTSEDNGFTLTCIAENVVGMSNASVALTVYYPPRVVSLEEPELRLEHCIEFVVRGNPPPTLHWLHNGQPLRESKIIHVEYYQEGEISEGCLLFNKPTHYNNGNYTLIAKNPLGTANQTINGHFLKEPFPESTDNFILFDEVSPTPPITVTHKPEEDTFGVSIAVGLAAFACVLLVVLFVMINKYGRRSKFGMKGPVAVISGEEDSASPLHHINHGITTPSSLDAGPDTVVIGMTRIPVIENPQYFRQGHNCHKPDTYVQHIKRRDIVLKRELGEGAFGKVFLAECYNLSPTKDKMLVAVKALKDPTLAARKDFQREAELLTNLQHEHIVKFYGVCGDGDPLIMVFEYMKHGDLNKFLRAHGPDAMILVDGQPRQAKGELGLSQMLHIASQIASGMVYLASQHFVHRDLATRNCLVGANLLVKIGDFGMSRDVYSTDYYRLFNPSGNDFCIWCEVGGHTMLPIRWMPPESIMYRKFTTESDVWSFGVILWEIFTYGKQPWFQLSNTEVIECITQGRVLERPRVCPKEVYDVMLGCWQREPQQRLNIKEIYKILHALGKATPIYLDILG

With `COc1ccc(Nc2ccc(Cc3c[nH]c4ncc(C)cc34)c(F)n2)cn1` [Compound P-3019, [6-fluoro-5-(5-methyl-1H-pyrrolo[2,3-b]pyridin-3-ylmethyl)-pyridin-2-yl]-(6-methoxy-pyridin-3-yl)-amine] the IC50 (TrkC kinase) was less than 100 nM, the “% spleen growth inhibition, Fms” value (BCR-FMS BaF3 cells; [1]) was 40% and the “% spleen growth inhibition, TrkB” value (BCR-TRK2 BaF3 cells; [1]) was 14%.

With `CCOc1ccc(Nc2ncc(Cc3c[nH]c4ncc(C)cc34)cn2)cn1` [Compound P-3027, (6-Ethoxy-pyridin-3-yl)-[5-(5-methyl-1H-pyrrolo[2,3-b]pyridin-3-ylmethyl)-pyrimidin-2-yl]-amine] the IC50 (TrkC kinase) was less than 100 nM, the “% spleen growth inhibition, Fms” value (BCR-FMS BaF3 cells; [1]) was 42% and the “% spleen growth inhibition, TrkB” value (BCR-TRK2 BaF3 cells; [1]) was 2%.

For `COc1ncnc2[nH]cc(Cc3ccc(Nc4ccc(C5CC5)nc4)nc3F)c12` [Compound P-4004, (6-Cyclopropyl-pyridin-3-yl)-[6-fluoro-5-(4-methoxy-7H-pyrrolo[2,3-d]pyrimidin-5-ylmethyl)-pyridin-2-yl]-amine], the “% spleen growth inhibition, Fms” value (BCR-FMS BaF3 cells; dosed at 30 mg/kg) was 70%, the “% spleen growth inhibition, Fms” value (BCR-FMS BaF3 cells; [1]) was 36% and the “% spleen growth inhibition, TrkA” value (BCR-TRK1 BaF3 cells; dosed at 30 mg/kg) was 40%. For the same compound, the “% spleen growth inhibition, TrkA” value (BCR-TRK1 BaF3 cells; [1]) was 16%, the “% spleen growth inhibition, TrkB” value (BCR-TRK2 BaF3 cells; dosed at 30 mg/kg) was 91% and the “% spleen growth inhibition, TrkB” value (BCR-TRK2 BaF3 cells; [1]) was 41%.

With `CCOc1ccc(Nc2ccc(Cc3c[nH]c4ncnc(OC)c34)c(F)n2)cn1` [Compound P-4005, (6-Ethoxy-pyridin-3-yl)-[6-fluoro-5-(4-methoxy-7H-pyrrolo[2,3-d]pyrimidin-5-ylmethyl)-pyridin-2-yl]-amine] the “% spleen growth inhibition, Fms” value (BCR-FMS BaF3 cells; [1]) was 65%, the “% spleen growth inhibition, TrkA” value (BCR-TRK1 BaF3 cells; [1]) was 25% and the “% spleen growth inhibition, TrkB” value (BCR-TRK2 BaF3 cells; [1]) was 35%.

With `CCOc1ccc(Nc2ccc(Cc3c[nH]c4ncnc(C)c34)c(F)n2)cn1` [Compound P-4006, (6-Ethoxy-pyridin-3-yl)-[6-fluoro-5-(4-methyl-7H-pyrrolo[2,3-d]pyrimidin-5-ylmethyl)-pyridin-2-yl]-amine] the “% spleen growth inhibition, Fms” value (BCR-FMS BaF3 cells; [1]) was 55% and the “% spleen growth inhibition, TrkB” value (BCR-TRK2 BaF3 cells; [1]) was 21%.

For `CCc1ccc(Nc2ccc(Cc3c[nH]c4ncnc(OC)c34)c(F)n2)cn1` [Compound P-4007, (6-Ethyl-pyridin-3-yl)-[6-fluoro-5-(4-methoxy-7H-pyrrolo[2,3-d]pyrimidin-5-ylmethyl)-pyridin-2-yl]-amine], the “% spleen growth inhibition, Fms” value (BCR-FMS BaF3 cells; [1]) was 28% and the “% spleen growth inhibition, TrkB” value (BCR-TRK2 BaF3 cells; [1]) was 19%.

`COc1ccc(Nc2ccc(C(=O)c3c[nH]c4ncnc(C5CC5)c34)c(F)n2)cn1` [Compound P-4022, (4-cyclopropyl-7H-pyrrolo[2,3-d]pyrimidin-5-yl)-[2-fluoro-6-(6-methoxy-pyridin-3-ylamino)-pyridin-3-yl]-methanone] was tested, and the “% spleen growth inhibition, Fms” value (BCR-FMS BaF3 cells; [1]) was 42% and the “% spleen growth inhibition, TrkB” value (BCR-TRK2 BaF3 cells; [1]) was 33%.

`CCc1ccc(Nc2ccc(Cc3c[nH]c4ncnc(C5CC5)c34)c(F)n2)cn1` [Compound P-4028, [5-(4-Cyclopropyl-7H-pyrrolo[2,3-d]pyrimidin-5-ylmethyl)-6-fluoro-pyridin-2-yl]-(6-ethyl-pyridin-3-yl)-amine] was tested, and the “% spleen growth inhibition, Fms” value (BCR-FMS BaF3 cells; [1]) was 86% and the “% spleen growth inhibition, TrkB” value (BCR-TRK2 BaF3 cells; [1]) was 88%.

With `Cc1ccc(Nc2ccc(Cc3c[nH]c4ncnc(C5CC5)c34)c(F)n2)cn1` [Compound P-4030, [5-(4-Cyclopropyl-7H-pyrrolo[2,3-d]pyrimidin-5-ylmethyl)-6-fluoro-pyridin-2-yl]-(6-methyl-pyridin-3-yl)-amine] the “% spleen growth inhibition, Fms” value (BCR-FMS BaF3 cells; [1]) was 58% and the “% spleen growth inhibition, TrkB” value (BCR-TRK2 BaF3 cells; [1]) was 50%.
